Experimental data as given in patent publication US9512120B2, “Microbicidally active imidazopyridine derivatives” (Syngenta Participations AG, priority 2013, dated 2016).

Legend:
[1] = test system: Pyrenophora teres; assay: Pyrenophora teres / barley / leaf disc preventative (net blotch); format: in vivo; details: foliar, barley leaf segments cv Hasso, inoculated two days after application, assessed 5-7 days after application, read-out: control of Pyrenophora teres (disease control compared to untreated)
Description: Pyrenophora Teres/Barley/Leaf Disc Preventative (Net Blotch): Barley leaf segments cv Hasso are placed on agar in a 24-well plate and sprayed with formulated test compound diluted in water at an application rate of 200 ppm. The leaf segments are inoculated with a spore suspension of the fungus two days after application of the test solution. The inoculated leaf segments are incubated at 20° C. and 65% relative humidity under a light regime of 12/12 h (light/dark) in a climate cabinet and the activity of a compound is assessed as disease control compared to untreated when an appropriate level of disease damage appears in untreated check leaf segments (5-7 days after application).

[2] = test system: Botryotinia fuckeliana (Botrytis cinerea); assay: Botryotinia fuckeliana (Botrytis cinerea) / liquid culture (gray mould); format: cell-based; details: Vogels broth, 24° C., 3-4 days after application, read-out: control of Botryotinia fuckeliana (inhibition of growth, photometric)
Description: Botryotinia Fuckeliana (Botrytis cinerea)/Liquid Culture (Gray Mould): Conidia of the fungus from cryogenic storage were directly mixed into nutrient broth (Vogels broth). After placing a DMSO solution of test compound into a 96-well microtiter plate at an application rate of 200 ppm, the nutrient broth containing the fungal spores was added. The test plates were incubated at 24° C. and the inhibition of growth was determined photometrically 3-4 days after application.

[3] = test system: Mycosphaerella graminicola (Septoria tritici); assay: Mycosphaerella graminicola (Septoria tritici) / liquid culture (Septoria blotch); format: cell-based; details: Zymoseptoria tritici, PDB, 24° C., 4-5 days after application, read-out: control of Mycosphaerella graminicola (inhibition of growth, photometric)
Description: Mycosphaerella graminicola (Septoria tritici)/Liquid Culture (Septoria Blotch): Conidia of the fungus from cryogenic storage were directly mixed into nutrient broth (PDB potato dextrose broth). After placing a DMSO solution of test compound into a 96-well microtiter plate at an application rate of 200 ppm, the nutrient broth containing the fungal spores was added. The test plates were incubated at 24° C. and the inhibition of growth was determined photometrically 4-5 days after application.

[4] = test system: Gaeumannomyces graminis; assay: Gaeumannomyces graminis / liquid culture (take-all of cereals); format: cell-based; details: PDB, 24° C., 4-5 days after application, read-out: control of Gaeumannomyces graminis (inhibition of growth, photometric)
Description: Gaeumannomyces graminis/Liquid Culture (Take-all of Cereals): Mycelial fragments of the fungus from cryogenic storage were directly mixed into nutrient broth (PDB potato dextrose broth). After placing a DMSO solution of test compound into a 96-well microtiter plate at an application rate of 200 ppm, the nutrient broth […], containing the fungal spores is added. The test plates were incubated at 24° C. and the inhibition of growth was determined photometrically 4-5 days after application.

[5] = test system: Thanatephorus cucumeris (Rhizoctonia solani); assay: Thanatephorus cucumeris (Rhizoctonia solani) / liquid culture (foot rot, damping-off); format: cell-based; details: PDB, 24° C., 3-4 days after application, read-out: control of Thanatephorus cucumeris (inhibition of growth, photometric)
Description: Thanatephorus cucumeris (Rhizoctonia solani)/Liquid Culture (Foot Rot, Damping-Off): Mycelia fragments of a newly grown liquid culture of the fungus are directly mixed into nutrient broth (PDB potato dextrose broth). After placing a DMSO solution of the test compounds into a 96-well microtiter plate at an application rate of 200 ppm, the nutrient broth containing the fungal material was added. The test plates were incubated at 24° C. and the inhibition of growth was determined photometrically 3-4 days after application.

[6] = test system: Puccinia recondita f. sp. Tritici; assay: Puccinia recondita f. sp. tritici / wheat / leaf disc preventative (brown rust); format: in vivo; details: foliar, wheat leaf segments cv Kanzler, inoculated 1 day after application, assessed 7-9 days after application, read-out: control of Puccinia recondita f. sp. Tritici (percent disease control compared to untreated)
Description: Puccinia recondita f. Sp. Tritici/Wheat/Leaf Disc Preventative (Brown Rust): Wheat leaf segments cultivated variety (cv) Kanzler were placed on agar in 24-well plates and sprayed with formulated test compound diluted in water at an application rate of 200 ppm. The leaf disks were inoculated with a spore suspension of the fungus 1 day after application. The inoculated leaf segments were incubated at 19° C. and 75% relative humidity under a light regime of 12/12 h (light/dark) in a climate cabinet and the activity of a compound was assessed as percent disease control compared to untreated when an appropriate level of disease damage appears in untreated check leaf segments (7-9 days after application).

[7] = test system: Monographella nivalis (Microdochium nivale); assay: Monographella nivalis (Microdochium nivale) / liquid culture (foot rot cereals); format: cell-based; details: PDB, 24° C., 4-5 days after application, read-out: control of Monographella nivalis (inhibition of growth, photometric)
Description: Monographella nivalis (Microdochium nivale)/Liquid Culture (Foot Rot Cereals): Conidia of the fungus from cryogenic storage were directly mixed into nutrient broth (PDB potato dextrose broth). After placing a DMSO solution of test compound into a 96-well microtiter plate at an application rate of 200 ppm, the nutrient broth containing the fungal spores was added. The test plates were incubated at 24° C. and the inhibition of growth was determined photometrically 4-5 days after application.

[8] = test system: Glomerella lagenarium (Colletotrichum lagenarium); assay: Glomerella lagenarium (Colletotrichum lagenarium) / liquid culture (anthracnose); format: cell-based; details: Colletotrichum orbiculare, PDB, 24° C., 3-4 days after application, read-out: control of Glomerella lagenarium (inhibition of growth, photometric)
Description: Glomerella lagenarium (Colletotrichum lagenarium)/Liquid Culture (Anthracnose): Conidia of the fungus from cryogenic storage were directly mixed into nutrient broth (PDB potato dextrose broth). After placing a DMSO solution of test compound into a 96-well microtiter plate at an application rate of 200 ppm, the nutrient broth containing the fungal spores was added. The test plates were incubated at 24° C. and the inhibition of growth is measured photometrically 3-4 days after application.

Nc1ncnn1-c1nc2cnccc2n1C1CC1 [Compound 1, 2-(1-cyclopropylimidazo[4,5-c]pyridin-2-yl)-1,2,4-triazol-3-amine]
≥ 80%: pest or weed control at 200 ppm [1] | inhibition at 20 ppm [2] | inhibition at 20 ppm [3] | inhibition at 20 ppm [4] | inhibition at 20 ppm [5]

CCn1c(-n2ncnc2N)nc2cncc(-c3ccc(-c4ccc(F)cc4)nc3)c21 [Compound 54, 2-[1-ethyl-7-[6-(4-fluorophenyl)pyridin-3-yl]imidazo[4,5-c]pyridin-2-yl]-1,2,4-triazol-3-amine]
≥ 80%: pest or weed control at 200 ppm [6] | inhibition at 20 ppm [2] | inhibition at 20 ppm [3] | inhibition at 20 ppm [5]

CCn1c(-n2ncnc2N)nc2cncc(-c3ccc(OC)nc3OC)c21 [Compound 56, 2-[7-(2,6-dimethoxypyridin-3-yl)-1-ethylimidazo[4,5-c]pyridin-2-yl]-1,2,4-triazol-3-amine]
≥ 80%: pest or weed control at 200 ppm [6] | pest or weed control at 200 ppm [1] | inhibition at 20 ppm [2] | inhibition at 20 ppm [3] | inhibition at 20 ppm [5]

CCn1c(-n2ncnc2N)nc2cncc(-c3cccc(C)c3C)c21 [Compound 82, 2-[7-(2,3-dimethylphenyl)-1-ethylimidazo[4,5-c]pyridin-2-yl]-1,2,4-triazol-3-amine]
≥ 80%: pest or weed control at 200 ppm [6] | pest or weed control at 200 ppm [1] | inhibition at 20 ppm [2] | inhibition at 20 ppm [3] | inhibition at 20 ppm [4] | inhibition at 20 ppm [5]

CCn1c(-n2ncnc2N)nc2cncc(-c3ccc(F)cc3C)c21 [Compound 92, 2-[1-ethyl-7-(4-fluoro-2-methylphenyl)imidazo[4,5-c]pyridin-2-yl]-1,2,4-triazol-3-amine]
≥ 80%: pest or weed control at 200 ppm [1] | inhibition at 20 ppm [2] | inhibition at 20 ppm [3] | inhibition at 20 ppm [4] | inhibition at 20 ppm [5]

CCn1c(-n2ncnc2N)nc2cncc(-c3ccc(F)cc3OC)c21 [Compound 95, 2-[1-ethyl-7-(4-fluoro-2-methoxyphenyl)imidazo[4,5-c]pyridin-2-yl]-1,2,4-triazol-3-amine]
≥ 80%: pest or weed control at 200 ppm [6] | inhibition at 20 ppm [3] | inhibition at 20 ppm [4] | inhibition at 20 ppm [5] | inhibition at 20 ppm [7]

CCn1c(-n2ncnc2N)nc2cncc(-c3cccc(Cl)c3C)c21 [Compound 99, 2-[7-(3-chloro-2-methylphenyl)-1-ethylimidazo[4,5-c]pyridin-2-yl]-1,2,4-triazol-3-amine]
≥ 80%: pest or weed control at 200 ppm [6] | pest or weed control at 200 ppm [1] | inhibition at 20 ppm [2] | inhibition at 20 ppm [3] | inhibition at 20 ppm [4] | inhibition at 20 ppm [5]

Nc1ncnn1-c1nc2cncc(-c3ccccc3F)c2n1C1CCCCC1 [Compound 127, 2-[1-cyclohexyl-7-(2-fluorophenyl)imidazo[4,5-c]pyridin-2-yl]-1,2,4-triazol-3-amine]
≥ 80%: inhibition at 20 ppm [4]

CCn1c(-n2ncnc2N)nc2cncc(C#N)c21 [Compound 128, 2-(5-amino-1,2,4-triazol-1-yl)-1-ethylimidazo[4,5-c]pyridine-7-carbonitrile]
≥ 80%: inhibition at 20 ppm [4] | inhibition at 20 ppm [5]

CCCn1c(-n2ncnc2N)nc2cncc(C#N)c21 [Compound 129, 2-(5-amino-1,2,4-triazol-1-yl)-1-propylimidazo[4,5-c]pyridine-7-carbonitrile]
≥ 80%: inhibition at 20 ppm [8]

N#Cc1cncc2nc(-n3ncnc3N)n(C3CCCCC3)c12 [Compound 131, 2-(5-amino-1,2,4-triazol-1-yl)-1-cyclohexylimidazo[4,5-c]pyridine-7-carbonitrile]
≥ 80%: inhibition at 20 ppm [8]

CCCCCCO/N=C(\C)c1cncc2nc(-n3ncnc3N)n(CC)c12 [Compound 148]
≥ 80%: pest or weed control at 200 ppm [1] | inhibition at 20 ppm [8] | inhibition at 20 ppm [3] | inhibition at 20 ppm [5]

CCn1c(-n2ncnc2N)nc2cncc(/C(C)=N/OCC=C(C)C)c21 [Compound 157]
≥ 80%: pest or weed control at 200 ppm [6] | pest or weed control at 200 ppm [1] | inhibition at 20 ppm [8] | inhibition at 20 ppm [3] | inhibition at 20 ppm [5]

CCn1c(-n2ncnc2N)nc2cncc(/C(C)=N/OC(C)C)c21 [Compound 167]
≥ 80%: pest or weed control at 200 ppm [6] | pest or weed control at 200 ppm [1] | inhibition at 20 ppm [3] | inhibition at 20 ppm [5]

CCn1c(-n2ncnc2N)nc2cncc(C(C)=NOc3ccccc3)c21 [Compound 168]
≥ 80%: pest or weed control at 200 ppm [6] | pest or weed control at 200 ppm [1] | inhibition at 20 ppm [3] | inhibition at 20 ppm [5]

C/C=C/CO/N=C(\C)c1cncc2nc(-n3ncnc3N)n(CC)c12 [Compound 177]
≥ 80%: inhibition at 20 ppm [2] | inhibition at 20 ppm [3] | inhibition at 20 ppm [5] | inhibition at 20 ppm [7]

CCCn1c(-n2ncnc2N)nc2cncc(/C(C)=N/OC/C=C(\C)Cl)c21 [Compound 185]
≥ 80%: pest or weed control at 200 ppm [1] | inhibition at 20 ppm [2] | inhibition at 20 ppm [3] | inhibition at 20 ppm [5] | inhibition at 20 ppm [7]

CCCn1c(-n2ncnc2N)nc2cncc(/C(C)=N/OCC=C(Cl)Cl)c21 [Compound 187]
≥ 80%: pest or weed control at 200 ppm [6] | inhibition at 20 ppm [3] | inhibition at 20 ppm [4] | inhibition at 20 ppm [5]

CCCn1c(-n2ncnc2N)nc2cncc(/C(C)=N/OCC=C(C)C)c21 [Compound 189]
≥ 80%: pest or weed control at 200 ppm [6] | inhibition at 20 ppm [3] | inhibition at 20 ppm [5] | inhibition at 20 ppm [7]
